Key:
Format in all cases: cell-based, human
[1] = tested on: COX2; assay: Relative COX2 mRNA expression in IL-1β-stimulated MKN-45 cells (real-time PCR); details: IL-1β-stimulated DMSO-treated cells = 100%, ACTB reference
Description: (§1) RNA was extracted from the cells used in Example 2 according to the manufacturer's protocol for ABI Prism 6100 Nucleic Acid PrepStation (a nucleic acid isolation system, product of Applied Biosystems). More specifically, after removal of the culture supernatant and washing with 1 mL of PBS, 250 μL of Nucleic Acid Purification Lysis Solution (Part No. 4305895, Applied Biosystems) was added, and then agitated using a shaker for 2 to 3 minutes. The Lysis Solution containing the cell lysate was collected, and the total amount was transferred to the wells of RNA Purification Tray (Part No. 4305673, Applied Biosystems), which had been pre-wet with 40 μL of Nucleic Acid Purification Wash Solution I (Part No. 4305891, Applied Biosystems) beforehand. Aspiration (20% pressure) was performed for 2 minutes to adsorb the sample onto the RNA Purification Tray, followed by sequentially adding and aspirating (20% pressure, 2 min.) 500 μL of Wash Solution I, Nucleic Acid Purification (Part No. 4305891, Applied Biosystems), 400 μL of Wash Solution II, Nucleic Acid Purification (Part No. 4305890, product of Applied Biosystems), 400 μL of the Wash Solution II, and 300 μL of the Wash Solution II in that order. Aspiration (90% pressure) was performed for 5 minutes to remove the water content from the RNA Purification Trays. After addition of 150 μL of Elution Solution, Nucleic Acid Purification (Part No. 4305893, product of Applied Biosystems), aspiration (20% pressure) was performed for 2 minutes, while collecting the outflow. This was used as collected RNA solution.
(§2) Absorbance of the collected RNA solution at 260 nm was measured using a microplate spectrophotometer (“SpectraMax Plus”, product of Molecular Devices) with an analysis software (“SOFTmaxPRO ver.3.1.2”, product of Molecular Devices), and the RNA concentration was determined from the absorbance. Likewise, absorbance at 280 nm was measured and the purity of the RNA was determined using the analysis software.
(§3) cDNA was synthesized according to the manufacturer's protocol for TaqMan® Reverse Transcription Reagents (Part No. N808-0234, product of Applied Biosystems). More specifically, about 0.5 μg of RNA, 2.5 μL of 10×RT buffer, 5.5 μL of MgCl2 solution, 5 μL of dNTP mixture, 1.25 μL of random hexamer (primers), 0.5 μL of RNase inhibitor, and 0.63 μL of MultiScribe Reverse Transcriptase (product of Applied Biosystems) were added to each collected RNA sample in a tube, and DEPC-treated water was added to make a total volume of 25 μL and stirred. A reaction consisting of 25° C. for 10 minutes, 48° C. for 30 minutes, and 95° C. for 5 minutes was performed using a PCR thermal cycler (“TaKaRa PCR Thermal Cycler Dice”, product of Takara Bio Inc.) to prepare a cDNA solution.
(§4) PCR was performed according to the manufacturer's protocol for TaqMan® Gene Expression Assays (product of Applied Biosystems). More specifically, 5 μL of TaqMan® Fast Universal PCR Master Mix (product of Applied Biosystems), 0.5 μL of TaqMan® Gene Expression Assays for the target gene (gene-specific probe and primer sets, product of Applied Biosystems), and 4.5 μL of the above-obtained cDNA solution were added to each sample and stirred. A PCR reaction consisting of heating at 95° C. for 20 seconds, followed by 40 cycles consisting of heating at 95° C. for 3 seconds and annealing and extension at 60° C. for 30 seconds was performed using a real-time PCR device (“Applied Biosystems 7500 Real-Time PCR System”) with SDS v1.4 Software (product of Applied Biosystems). Threshold cycle (Ct) values were calculated using the software.
(§5) The Assay IDs of the TaqMan® Gene Expression Assays for the target genes used are as follows:
(§6) The expression level of each gene was determined according to the following formula using the level of ACTB as a reference standard.
(§7) (Relative mRNA expression level)=2̂−{(Ct value of the target gene)−(Ct value of ACTB)} […]

[2] = tested on: NF-κB; assay: NF-kappaB reporter assay (pNF-kappaB-SEAP) in IL-1β-stimulated MKN-45 cells; details: IL-1β 2 ng/mL for 6 hours, DMSO (0.05%) control = 1.00, triplicate
Description: pNF-kappaB-SEAP was obtained from Clonetech Laboratories Inc.
Cryopreserved MKN-45 cells (product of JCRB (Japanese Collection of Research Bioresources)) were thawed and cultured in a standard medium in an incubator (37° C., 5% CO2). Every three to five days, the cells were recovered by treatment with Trypsin-EDTA, then adequately diluted and subcultured. MKN-45 cells subcultured two or more times with a survival rate of 95% or more were used in each experiment.
The subcultured MKN-45 cells were harvested using Trypsin-EDTA solution, and the number of viable cells was counted. The cells were suspended in a standard medium to yield a 1.5×10^5 cells/mL suspension. A 24-well plate was seeded with 500 μL/well of the cell suspension, and the cells were cultured in an incubator (37° C., 5% CO2).
The day after seeding, transfection was performed according to the following protocol.
(4.1) Preparation of Plasmid Solution 4 μL of 0.1 μg/μL pNFkappaB-SEAP was placed into each well and diluted with 50 μL of OPTI-MEM I (product of Invitrogen Japan K.K.) by mixing by inversion.
1 μL of Lipofectamine 2000 reagent (product of Invitrogen) was placed into each well and diluted with 50 μL of OPTI-MEM I (product of Life Technologies Inc.) by mixing by inversion. The mixture was allowed to stand at room temperature for 5 to 10 minutes to prepare a Lipofectamine dilution.
The plasmid solution and the Lipofectamine dilution were mixed by inversion and allowed to stand at room temperature for 20 to 30 minutes to prepare a transfection mixture.
The culture medium was removed from the 24-well plate by suction. While care was taken not to dry the subcultured MKN-45 cells, the inner surface of the wells was washed with 1 mL/well of PBS. After the medium was replaced with 500 μL/well of OPTI-MEM I (product of Life Technologies Inc.), 100 μL/well of the transfection mixture was added, and the cells were cultured in a incubator (37° C., 5% CO2). After about 5 hours of incubation, the medium was replaced with a standard medium, and the cells were further cultured in a CO2 incubator (37° C., 5% CO2) until the following day.
On the following morning, the culture medium supernatant was removed by suction and replaced with 1 mL/well of the test compound solution or control solution diluted with a standard medium. The cells were cultured in a CO2 incubator (37° C., 5% CO2) for 1 hour. Each experiment was performed in triplicate.
200 ng/mL IL-1β was added in an amount of 10 μL/well (final concentration: 2 ng/mL), and the cells were cultured in a CO2 incubator (37° C., 5% CO2) for 6 hours.
A reporter assay was performed using Reporter Assay Kit-SEAP (product of Toyobo Co.) according to the manufacturer's protocol.
More specifically, 500 μL of the culture broth was transferred into a tube and centrifuged at 15,000 rpm for 5 minutes at 4° C. The supernatant was transferred into a 96-well white plate. The positive control included in the Reporter Assay Kit-SEAP, and a standard medium as a blank control were each added in an amount of 20 μL/well to the 96-well white plate. Further, an inhibitor for inhibiting the AP activity of the MKN-45 cells was added in an amount of 20 μL/well. After sealing the plate, the contents were mixed well. The plate was placed into a CO2 incubator (37° C., 5% CO2) and allowed to stand for 30 minutes. Subsequently, the plate was allowed to stand on ice for 1 minute, followed by addition of 160 μL/well of Lumi-Phos Plus (a chemiluminescent substrate, product of Lumigen Inc.). The plate was sealed again and placed in a light-shielded state into a CO2 incubator (37° C., 5% CO2). After the plate was allowed to stand for 15 to 30 minutes, luminescence was measured for about 5 to about 10 seconds using a luminometer.
The results of the reporter assay were expressed as Percent Control (or Inhibition), calculated according to the following formulae. The luminescence of each sample was calculated by subtracting the average of blank samples.

[3] = tested on: IL-8; assay: Relative IL-8 mRNA expression in IL-1β-stimulated MKN-45 cells (real-time PCR); details: IL-1β-stimulated DMSO-treated cells = 100%, ACTB reference
Description: as §1, §2, §3, §4, §5, §6, §7

[4] = tested on: TNFα; assay: Relative TNFα mRNA expression in IL-1β-stimulated MKN-45 cells (real-time PCR); details: IL-1β-stimulated DMSO-treated cells = 100%, ACTB reference
Description: as §1, §2, §3, §4, §5, §6, §7

SMILES | COX2 relative mRNA expression level, Mean [1] [%] | NF-kappaB reporter (SEAP luminescence) IL-1b(+) mean, relative to control [2] | IL-8 relative mRNA expression level, Mean [3] [%] | TNFa relative mRNA expression level, Mean [4] [%]
COc1ccc(CC2SC(=S)NC2=O)c2c1N(CCOc1ccccc1)C(=O)CC2 (stereo not shown) [Test Compound 981] | 37.8 | 0.68 | 70.4 | 75.7
O=C1NC(=S)SC1Cc1cccc2c1CCC(=O)N2Cc1ccc2ccccc2c1 (stereo not shown) [Test Compound 996] | 31.3 | 0.43 | 50.1 | 41.3
COC(=O)c1ccc(CN2C(=O)CCc3c(CC4SC(=O)NC4=O)ccc(OC)c32)cc1 (stereo not shown) [Test Compound 025] | 38.3 | 0.58 | 59.9 | 53.0
COc1ccc(CC2SC(=O)NC2=O)c2c1N(CC(=O)Nc1ccc(C(F)(F)F)cc1)C(=O)CC2 (stereo not shown) [Test Compound 612] | 33.4 | 0.67 | 41.8 | 31.1
O=C1NC(=O)C(Cc2cccc3c2CCC(=O)N3Cc2ccc(Br)cc2)S1 (stereo not shown) [Test Compound 134] | 33.1 | 0.46 | 55.4 | 36.6
COc1ccc(CC2SC(=S)NC2=O)c2c1N(CC1CC1)C(=O)CC2 (stereo not shown) [Test Compound 980] | 53.8 | 0.63 | 79.4 | 98.0
Cc1ccc(CC(=O)N2CCC(CCN3C(=O)CCc4c(CC5SC(=O)NC5=O)cccc43)CC2)cc1 (stereo not shown) [Test Compound 616] | 26.3 | 0.57 | 35.3 | 31.4
COc1ccc(CC2SC(=O)NC2=O)c2c1N(Cc1ccc(NC(=O)Oc3ccc(C)cc3)cc1)C(=O)CC2 (stereo not shown) [Test Compound 233] | 24.9 | 0.85 | 30.4 | 28.9
COc1ccc(CC2SC(=S)NC2=O)c2c1N(Cc1ccc(C(C)(C)C)cc1)C(=O)CC2 (stereo not shown) [Test Compound 914] | 32.9 | 0.53 | 61.9 | 66.7
O=C1NC(=O)C(Cc2cccc3c2CCC(=O)N3c2ccccc2)S1 (stereo not shown) [Test Compound 150] | 53.7 | 0.71 | 52.0 | 53.9
COc1ccc(CC2SC(=O)NC2=O)c2c1N(Cc1ccc(OCc3ccccc3)cc1)C(=O)CC2 (stereo not shown) [Test Compound 127] | 31.0 | 0.60 | 44.8 | 49.8
COc1ccc(CC2SC(=S)NC2=O)c2c1N(Cc1ccc3ccccc3c1)C(=O)CC2 (stereo not shown) [Test Compound 971] | 30.8 | 0.56 | 55.9 | 63.4
COc1ccc(OC(=O)Nc2ccc(CN3C(=O)CCc4c(CC5SC(=O)NC5=O)ccc(OC)c43)cc2)cc1 (stereo not shown) [Test Compound 237] | 25.9 | 0.57 | 25.9 | 26.2
